From patent publication US7598397B2, “Sulfonamide peri-substituted bicyclics for occlusive artery disease” (deCODE genetics ehf, priority 2004, dated 2009) come the findings set out here.

In this assay the target is T1, prostanoid EP3 receptors (Homo sapiens, UniProt P43115).
T1 sequence (P43115 1-390): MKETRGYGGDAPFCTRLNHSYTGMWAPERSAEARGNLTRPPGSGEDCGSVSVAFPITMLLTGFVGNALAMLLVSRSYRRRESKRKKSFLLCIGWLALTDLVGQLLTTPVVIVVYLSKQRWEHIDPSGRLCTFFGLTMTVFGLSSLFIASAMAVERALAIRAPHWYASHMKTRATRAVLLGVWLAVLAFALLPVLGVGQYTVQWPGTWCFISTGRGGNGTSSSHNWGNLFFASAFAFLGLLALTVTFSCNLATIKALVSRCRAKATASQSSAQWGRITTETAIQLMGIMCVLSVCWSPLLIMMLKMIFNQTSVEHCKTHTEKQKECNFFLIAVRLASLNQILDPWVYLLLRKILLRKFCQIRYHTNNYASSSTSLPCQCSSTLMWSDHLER
Put plainly: binding on prostanoid EP3 receptors (method of Abramovitz et al.). The following applies: read-out: Activity (EP3 receptor binding, IC50 class). As for the experimental part:
The compounds of the invention were assayed for their binding on prostanoid EP3 receptors according to the method of Abramovitz et al. [Bioch. Biophys.
Regarding `Cc1cn(Cc2ccc(Cl)cc2Cl)c2c(C(=O)NS(=O)(=O)c3ccc(F)c(F)c3)cc(F)cc12` [Compound P417], the IC50 was below 1000 nM.

As to `COc1ccc(Br)cc1S(=O)(=O)NC(=O)COc1cccc2oc(=O)n(Cc3ccc4ccccc4c3)c12` [Compound P047], the IC50 is below 1000 nM.

`CC1(F)C(=O)N(Cc2ccc3ccccc3c2)c2c(C=CC(=O)NS(=O)(=O)c3cccs3)cccc21` (centres unmarked) [Compound P160]: the IC50 was below 1000 nM.

Consider `Cn1cc(/C=C/C(=O)NS(=O)(=O)c2cc(Cl)c(Cl)s2)c2c(Oc3ccc(F)cc3F)cccc21` [Compound P326], for which the IC50 was below 1000 nM.

Regarding `O=C(COc1cccc2c1C(Cc1ccc3ccccc3c1)C(=O)N2)NS(=O)(=O)c1cc(Cl)c(Cl)s1` (centres unmarked) [Compound P158], the IC50 was below 1000 nM.

On to `O=C(COc1cccc2[nH]cc(Sc3ccc4ccccc4c3)c12)NS(=O)(=O)c1ccc(F)cc1` [Compound P225], for which the IC50 is below 1000 nM.

Take `O=C(COc1cccc2[nH]cc(Sc3ccc4ccccc4c3)c12)NS(=O)(=O)c1cc(F)c(F)cc1F` [Compound P226]: the IC50 was below 1000 nM.

Take `Cc1cn(Cc2ccc3c(c2)OCO3)c2c(/C=C/C(=O)NS(=O)(=O)c3cc(Cl)c(Cl)s3)cccc12` [Compound P139]: the IC50 was below 1000 nM.

Regarding `CCOC(=O)C12CCCC(C=CC(=O)NS(=O)(=O)c3ccc(F)c(F)c3)=C1N(Cc1ccc(Cl)cc1Cl)C(=O)C2` (centres unmarked) [Compound P346], the IC50 was below 1000 nM.

Regarding `O=C(C=Cc1cccc2ccn(C(=O)c3ccc4ccccc4c3)c12)NS(=O)(=O)c1cccs1` [Compound P005], the IC50 was below 1000 nM.

As for `Cc1cn(Cc2ccc3ccccc3n2)c2c(/C=C/C(=O)NS(=O)(=O)c3cc(Cl)c(Cl)s3)cccc12` [Compound P146], the IC50 is below 1000 nM.

`CN1C(=O)C(C)(Cc2ccc3ccccc3c2)c2c(C=CC(=O)NS(=O)(=O)c3cc(Cl)c(Cl)s3)cccc21` (centres unmarked) [Compound P148]: the IC50 is below 1000 nM.

Turning to `COc1cc(Cn2cc(C)c3cc(F)cc(C=CC(=O)NS(=O)(=O)c4ccc(F)c(F)c4)c32)cc(OC)c1` [Compound P374], the IC50 is below 1000 nM.

`Cn1cc(C=CC(=O)NS(=O)(=O)c2ccc(F)c(F)c2)c2c(Oc3ccc(Cl)cc3Cl)cccc21` [Compound P302]: the IC50 is below 1000 nM.

For the compound `Cc1cn(CCC(=O)NS(=O)(=O)c2cc(F)c(F)cc2F)c2c(Oc3ccc(Cl)c(Cl)c3)cc(F)cc12` [Compound P386], the IC50 is below 1000 nM.

Turning to `Cn1cc(C=CC(=O)NS(=O)(=O)c2ccc(Cl)cc2Cl)c2c(Oc3ccc4ccccc4c3)cccc21` [Compound P356], the IC50 is below 1000 nM.

As for `COc1cc(Cn2cc(C)c3cccc(/C=C/C(=O)NS(=O)(=O)c4cc(Cl)c(Cl)s4)c32)cc(OC)c1` [Compound P141], the IC50 was below 1000 nM.

With `O=C(COc1cccc2c1N(Cc1ccccc1)C(=O)CO2)NS(=O)(=O)c1cccs1` [Compound P022], the IC50 lay within 1000 to 10000 nM.

For `CC12CCCC(C=CC(=O)NS(=O)(=O)c3cc(F)cc(F)c3)=C1N(Cc1cccc(Cl)c1Cl)C(=O)C2` (centres unmarked) [Compound P298], the IC50 is below 1000 nM.

Regarding `Cn1cc(C=CC(=O)NS(=O)(=O)c2ccc(F)c(F)c2)c2c(Oc3ccc(Cl)cc3)cccc21` [Compound P310], the IC50 is below 1000 nM.

On to `O=C(COc1cccc2c1N(Cc1ccc3ccccc3c1)C(=O)CO2)NS(=O)(=O)c1cccs1` [Compound P018], for which the IC50 is below 1000 nM.

With `CC12CCCC(C=CC(=O)NS(=O)(=O)c3cc(Cl)c(Cl)s3)=C1N(Cc1cccc(F)c1)C(=O)C2` (centres unmarked) [Compound P262], the IC50 was below 1000 nM.

For `CC12CCCC(C=CC(=O)NS(=O)(=O)c3cccc(Cl)c3)=C1N(Cc1ccc(Cl)cc1Cl)C(=O)C2` (centres unmarked) [Compound P281], the IC50 was below 1000 nM.

With `Cn1cc(C=CC(=O)NS(=O)(=O)c2ccc(Cl)c(Cl)c2)c2c(Oc3ccc4ccccc4c3)cccc21` [Compound P355], the half-maximal inhibitory concentration (IC50) is below 1000 nM.

For the compound `COc1cccc(CN2C(=O)CC3(C)CCCC(C=CC(=O)NS(=O)(=O)c4cc(F)cc(F)c4)=C23)c1` (centres unmarked) [Compound P307], the 50% inhibitory concentration (IC50) was below 1000 nM.

Regarding `CC12CCCC(C=CC(=O)NS(=O)(=O)c3cc(Cl)c(Cl)s3)=C1N(Cc1ccc(Cl)cc1Cl)C(=O)C2` (centres unmarked) [Compound P278], the IC50 was below 1000 nM.

Take `CN1C(=O)C(Nc2ccc3ccccc3c2)c2c(C=CC(=O)NS(=O)(=O)c3cc(Cl)c(Cl)s3)cccc21` (centres unmarked) [Compound P242]: the IC50 is below 1000 nM.

For the compound `COc1ccc(Sc2c[nH]c3cccc(OCC(=O)NS(=O)(=O)c4cc(Cl)c(Cl)s4)c23)cc1` [Compound P200], the IC50 was below 1000 nM.

`Cn1cc(C=CC(=O)NS(=O)(=O)c2ccc(F)c(F)c2)c2c(Oc3ccc(Cl)c(F)c3)cccc21` [Compound P332]: the IC50 was below 1000 nM.

As for `Cc1cn(Cc2ccc(OC(F)(F)F)cc2)c2c(/C=C/C(=O)NS(=O)(=O)c3cc(Cl)c(Cl)s3)cccc12` [Compound P143], the IC50 is below 1000 nM.

For the compound `O=C(/C=C/c1cccc2c(CO)cn(Cc3ccc(Cl)cc3Cl)c12)NS(=O)(=O)c1cccs1` [Compound P062], the IC50 is below 1000 nM.

For `COc1c(C)cnc(Cn2ccc3cccc(C=CC(=O)NS(=O)(=O)c4cccs4)c32)c1C` [Compound P055], the concentration for half-maximal inhibition (IC50) lay within 1000 to 10000 nM.

Take `Cn1cc(CCC(=O)NS(=O)(=O)c2cc(F)c(F)cc2F)c2c(Oc3ccc4ccccc4c3)cccc21` [Compound P412]: the IC50 is below 1000 nM.

Consider `O=C(C=Cc1cccc2c1N(Cc1ccc(Cl)cc1Cl)C(=O)C2(O)C[N+](=O)[O-])NS(=O)(=O)c1cc(Cl)c(Cl)s1` (centres unmarked) [Compound P134], for which the IC50 was below 1000 nM.

With `Cc1cn(Cc2cn3ccccc3n2)c2c(C=CC(=O)NS(=O)(=O)c3ccccc3F)cc(F)cc12` [Compound P409], the IC50 was below 1000 nM.

Turning to `CN1C(=O)C(Nc2ccc(F)c(F)c2)c2c(C=CC(=O)NS(=O)(=O)c3cc(Cl)c(Cl)s3)cccc21` (centres unmarked) [Compound P272], the IC50 was below 1000 nM.

`O=C(COc1cccc2[nH]cc(S(=O)(=O)c3nc[nH]n3)c12)NS(=O)(=O)c1cc(Cl)c(Cl)s1` [Compound P240]: the 50% inhibitory concentration (IC50) is below 1000 nM.

Take `Cn1cc(C=CC(=O)NS(=O)(=O)c2cc(F)c(F)cc2F)c2c(Oc3ccc(Cl)cc3F)cccc21` [Compound P337]: the IC50 is below 1000 nM.

In the case of `CCOC(=O)C12CCCC(C=CC(=O)NS(=O)(=O)c3cc(Cl)c(Cl)s3)=C1N(Cc1ccc(Cl)cc1Cl)C(=O)C2` (centres unmarked) [Compound P345], the IC50 was below 1000 nM.

For `CCOC(=O)C12CCCC(C=CC(=O)NS(=O)(=O)c3cc(F)c(F)cc3F)=C1N(Cc1ccc(Cl)cc1Cl)C(=O)C2` (centres unmarked) [Compound P344], the IC50 is below 1000 nM.

For `Cc1cn(Cc2cn3ccccc3n2)c2c(C=CC(=O)NS(=O)(=O)c3ccc(Cl)cc3)cc(F)cc12` [Compound P405], the IC50 was below 1000 nM.

As to `O=C(C=Cc1cc(F)cc2c(CO)cn(Cc3ccc(Cl)cc3Cl)c12)NS(=O)(=O)c1cc(Cl)c(Cl)s1` [Compound P397], the IC50 was below 1000 nM.

On to `CC12CCCC(C=CC(=O)NS(=O)(=O)c3cc(F)cc(F)c3)=C1N(Cc1ccc(Cl)cc1Cl)C(=O)C2` (centres unmarked) [Compound P282], for which the concentration for half-maximal inhibition (IC50) was below 1000 nM.

`COc1cccc(CN2C(=O)COc3cccc(OCC(=O)NS(=O)(=O)c4cccs4)c32)c1` [Compound P030]: the IC50 was 1000 to 10000 nM.

For the compound `CC(C)c1cn(Cc2ccc(Cl)cc2Cl)c2c(CCC(=O)NS(=O)(=O)c3cccs3)cccc12` [Compound P091], the IC50 lay in the range of 1000 to 10000 nM.

For `O=C(COc1cccc2oc(=O)n(Cc3ccc4ccccc4c3)c12)NS(=O)(=O)c1cccs1` [Compound P046], the IC50 is below 1000 nM.

As for `O=C(C=Cc1cccc2c1N(Cc1ccc3ccccc3c1)C(=O)C2)NS(=O)(=O)c1cc(Cl)c(Cl)s1` [Compound P179], the IC50 is below 1000 nM.

For `CN1C(=O)C(S(=O)(=O)c2ccc3ccccc3c2)c2c(OCC(=O)NS(=O)(=O)c3cc(Cl)c(Cl)s3)cccc21` (centres unmarked) [Compound P248], the IC50 was below 1000 nM.

As to `Cc1cn(Cc2cn3ccccc3n2)c2c(C=CC(=O)NS(=O)(=O)c3cc(F)c(F)cc3F)cc(F)cc12` [Compound P402], the IC50 was below 1000 nM.

Regarding `Cc1cn(Cc2cn3ccccc3n2)c2c(C=CC(=O)NS(=O)(=O)c3cccc(F)c3)cc(F)cc12` [Compound P401], the IC50 is below 1000 nM.

Turning to `Cc1cn(Cc2ccc(Cl)cc2Cl)c2c(C=CC(=O)NS(=O)(=O)c3cc(Cl)c(Cl)s3)cccc12` [Compound P079], the IC50 is below 1000 nM.

In the case of `O=C(C=Cc1cccc2c1C(Nc1ccc(Cl)cc1Cl)C(=O)N2)NS(=O)(=O)c1cc(Cl)c(Cl)s1` (centres unmarked) [Compound P287], the IC50 is below 1000 nM.

In the case of `Cc1cn(CCC(=O)NS(=O)(=O)c2cc(F)c(F)cc2F)c2c(Oc3ccc(Cl)cc3Cl)cc(F)cc12` [Compound P382], the IC50 was below 1000 nM.

As for `CN1C(=O)C(Nc2ccc(Cl)cc2Cl)c2c(C=CC(=O)NS(=O)(=O)c3cc(Cl)c(Cl)s3)cccc21` (centres unmarked) [Compound P252], the 50% inhibitory concentration (IC50) is below 1000 nM.

As to `Cn1cc(C=CC(=O)NS(=O)(=O)c2ccccc2Cl)c2c(Oc3ccc4ccccc4c3)cccc21` [Compound P352], the IC50 is below 1000 nM.

On to `Cn1cc(C=CC(=O)NS(=O)(=O)c2ccc(F)c(F)c2)c2c(Oc3ccc(Cl)cc3F)cccc21` [Compound P338], for which the IC50 was below 1000 nM.

As to `O=C(COc1cccc2[nH]cc(S(=O)(=O)c3ccc(Cl)c(Cl)c3)c12)NS(=O)(=O)c1cc(Cl)c(Cl)s1` [Compound P204], the IC50 is below 1000 nM.

On to `CC12CCCC(CCC(=O)NS(=O)(=O)c3cc(Cl)c(Cl)s3)C1N(Cc1ccc(F)c(F)c1)C(=O)C2` (centres unmarked) [Compound P415], for which the half-maximal inhibitory concentration (IC50) was below 1000 nM.

Turning to `Cn1cc(/C=C/C(=O)NS(=O)(=O)c2cc(Cl)c(Cl)s2)c2c(Oc3ccc(Cl)cc3)cccc21` [Compound P311], the IC50 is below 1000 nM.

A word on the IC50: it is the concentration that gives 50% inhibition.
